Activity calls are given as the source filed them. The calls are words filed in the database; no cut-off is given here.

Assay [1] addresses T1, Retinoic acid receptor RXR-alpha (Mus musculus) (UniProt P28700).
T1 sequence (whole entry): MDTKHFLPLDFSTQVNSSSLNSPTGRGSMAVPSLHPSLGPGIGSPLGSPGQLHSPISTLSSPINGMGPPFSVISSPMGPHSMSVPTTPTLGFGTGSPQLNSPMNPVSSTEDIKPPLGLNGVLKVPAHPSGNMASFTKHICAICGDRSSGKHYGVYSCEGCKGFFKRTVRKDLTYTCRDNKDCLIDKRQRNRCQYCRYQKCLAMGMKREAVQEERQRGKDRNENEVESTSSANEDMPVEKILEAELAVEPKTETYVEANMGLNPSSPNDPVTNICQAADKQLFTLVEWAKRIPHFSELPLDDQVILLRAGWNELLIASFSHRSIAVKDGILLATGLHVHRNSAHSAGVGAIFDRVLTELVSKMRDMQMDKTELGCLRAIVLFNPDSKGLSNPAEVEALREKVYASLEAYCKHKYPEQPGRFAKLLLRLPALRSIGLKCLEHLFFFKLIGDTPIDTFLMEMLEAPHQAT
The experiment in a line: Agonist activity at RXRalpha in mouse peritoneal macrophages assessed as ApoAI-mediated cholesterol efflux after 24 hrs […]. Type of assay: functional.

Assay [2] concerns RAW264.7. Kind of assay: Activation of RXR/LXR heterodimer in mouse RAW264.7 cells assessed as induction of ABCA1 mRNA expression by RT-PCR. Type of assay: cell-based.
The target of assay [3] is T2, Retinoic acid receptor RXR-alpha (Homo sapiens) (UniProt P19793).
T2 sequence (whole entry): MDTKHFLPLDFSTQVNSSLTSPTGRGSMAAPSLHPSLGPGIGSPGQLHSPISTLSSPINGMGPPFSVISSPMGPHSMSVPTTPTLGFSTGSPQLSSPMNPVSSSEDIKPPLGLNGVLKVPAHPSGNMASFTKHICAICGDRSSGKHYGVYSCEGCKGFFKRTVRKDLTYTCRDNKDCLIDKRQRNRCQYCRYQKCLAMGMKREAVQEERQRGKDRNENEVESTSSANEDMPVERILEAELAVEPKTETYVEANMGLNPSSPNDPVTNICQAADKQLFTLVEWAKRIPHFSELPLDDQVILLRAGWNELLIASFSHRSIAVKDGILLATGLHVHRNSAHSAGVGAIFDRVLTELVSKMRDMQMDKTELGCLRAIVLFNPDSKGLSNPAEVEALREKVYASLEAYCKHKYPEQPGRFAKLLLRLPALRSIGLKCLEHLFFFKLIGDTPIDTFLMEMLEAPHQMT
Kind of assay: Binding affinity to RXRalpha.

The target in assay [4] is T3, Retinoic acid receptor RXR-alpha (Homo sapiens, UniProt P19793).
T3 sequence (P19793 whole entry): T2 sequence (whole entry)
Kind of assay: Agonist activity at RXRalpha in HEK293 cells assessed as transcriptional activation after 48 hrs by luciferase reporter gene assay. Type of assay: functional, cell-based.

Assay [5] relates to RAW264.7. The experiment in a line: Activation of RXR/LXR heterodimer in mouse RAW264.7 cells assessed as induction of ABCG1 mRNA expression by RT-PCR in presence of RXR antagonist HX531. Type of assay: functional, cell-based.
Assay [6] relates to RAW264.7. Kind of assay: Activation of RXR/LXR heterodimer in mouse RAW264.7 cells assessed as induction of ABCG1 mRNA expression by RT-PCR. Type of assay: cell-based.
Assay [7] has as its target T4, Peroxisome proliferator-activated receptor gamma (Homo sapiens) (UniProt P37231).
T4 sequence (whole entry): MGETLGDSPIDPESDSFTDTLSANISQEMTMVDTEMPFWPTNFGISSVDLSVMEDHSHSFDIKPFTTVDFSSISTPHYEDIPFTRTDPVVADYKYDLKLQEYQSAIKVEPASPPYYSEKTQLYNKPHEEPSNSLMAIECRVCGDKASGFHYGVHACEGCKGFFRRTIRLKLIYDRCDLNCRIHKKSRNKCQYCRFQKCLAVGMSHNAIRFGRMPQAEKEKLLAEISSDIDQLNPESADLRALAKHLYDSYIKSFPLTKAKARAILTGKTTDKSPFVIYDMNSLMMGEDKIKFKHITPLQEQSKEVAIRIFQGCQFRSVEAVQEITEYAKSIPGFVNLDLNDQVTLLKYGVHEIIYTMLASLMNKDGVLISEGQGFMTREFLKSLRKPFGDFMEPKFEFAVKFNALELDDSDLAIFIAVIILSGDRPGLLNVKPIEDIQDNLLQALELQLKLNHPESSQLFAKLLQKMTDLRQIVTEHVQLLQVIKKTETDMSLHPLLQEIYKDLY
Kind of assay: Agonist activity at PPARgamma in HEK293 cells assessed as transcriptional activation after 48 hrs by luciferase reporter gene assay. Format: functional, cell-based. (Reporter assays use an easily measured gene product as a stand-in for the process of interest.)

Assay [8] addresses T5, Oxysterols receptor LXR-alpha (Homo sapiens) (UniProt Q13133).
T5 sequence (whole entry): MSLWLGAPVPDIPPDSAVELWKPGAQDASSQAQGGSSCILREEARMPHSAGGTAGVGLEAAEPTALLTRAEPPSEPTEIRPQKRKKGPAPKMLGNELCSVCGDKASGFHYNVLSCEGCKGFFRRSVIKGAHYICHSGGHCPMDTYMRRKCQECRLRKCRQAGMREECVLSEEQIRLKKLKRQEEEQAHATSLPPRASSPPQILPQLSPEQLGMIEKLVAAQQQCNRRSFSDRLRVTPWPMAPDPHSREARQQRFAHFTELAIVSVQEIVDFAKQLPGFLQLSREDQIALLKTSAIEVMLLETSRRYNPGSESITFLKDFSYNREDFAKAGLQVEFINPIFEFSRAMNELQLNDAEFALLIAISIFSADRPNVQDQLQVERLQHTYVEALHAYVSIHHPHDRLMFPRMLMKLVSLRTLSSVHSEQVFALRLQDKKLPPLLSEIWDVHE
The experiment in a line: Agonist activity at LXRalpha in HEK293 cells assessed as transcriptional activation after 48 hrs by luciferase reporter gene assay. Format: functional, cell-based.

Assay [9] deals with T1, Retinoic acid receptor RXR-alpha (Mus musculus). Kind of assay: Agonist activity at RXRalpha in mouse peritoneal macrophages assessed as ApoAI-mediated cholesterol efflux in presence of 22(R)-hydroxycholesterol after 24 hrs […]. Format: functional.
Assay [10] concerns RAW264.7. The experiment in a line: Activation of RXR/LXR heterodimer in mouse RAW264.7 cells assessed as induction of ABCG1 mRNA expression by RT-PCR in presence of 22(R)-hydroxycholesterol. Format: cell-based.
Assay [11] addresses T6, Peroxisome proliferator-activated receptor delta (Homo sapiens) (UniProt Q03181).
T6 sequence (whole entry): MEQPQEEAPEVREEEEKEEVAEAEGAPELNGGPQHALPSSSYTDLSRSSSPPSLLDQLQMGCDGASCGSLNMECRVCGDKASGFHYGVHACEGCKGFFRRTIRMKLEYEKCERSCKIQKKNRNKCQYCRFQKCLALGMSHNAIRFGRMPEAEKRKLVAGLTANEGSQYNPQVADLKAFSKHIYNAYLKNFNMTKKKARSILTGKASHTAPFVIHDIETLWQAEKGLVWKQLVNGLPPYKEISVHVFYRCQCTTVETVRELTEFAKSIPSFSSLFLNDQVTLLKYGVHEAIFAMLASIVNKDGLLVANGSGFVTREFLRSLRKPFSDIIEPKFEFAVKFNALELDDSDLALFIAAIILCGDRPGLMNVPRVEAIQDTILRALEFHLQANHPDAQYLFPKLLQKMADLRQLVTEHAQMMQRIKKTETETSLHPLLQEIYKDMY
The experiment in a line: Agonist activity at PPARdelta in HEK293 cells assessed as transcriptional activation after 48 hrs by luciferase reporter gene assay. Type of assay: functional, cell-based.

The test system of assay [12] is RAW264.7. Kind of assay: Activation of RXR/LXR heterodimer in mouse RAW264.7 cells assessed as induction of ABCG1 mRNA expression by RT-PCR RXR antagonist HX531. Type of assay: functional, cell-based.

`C=C(c1ccc(C(=O)O)cc1)c1cc2c(cc1C)C(C)(C)CCC2(C)C`: the outcome in assay [1] was Active. Further, the Activity result in assay [2] is “Dose-dependent effect”.

For `CC(C)CCC[C@@H](C)CCC[C@@H](C)CCCC(C)CC(=O)O` (stereo partly drawn), the result in [3] was Active.

As for `CC(C)CC[C@@H](O)[C@@H](C)[C@H]1CC[C@H]2[C@@H]3CC=C4C[C@@H](O)CC[C@]4(C)[C@H]3CC[C@]12C`, in [1], the outcome was Active. In addition, in assay [2], the Activity entry was “Dose-dependent effect”.

With `CC/C=C\C/C=C\C/C=C\C/C=C\C/C=C\C/C=C\CCC(=O)O`, the result in assay [3] was Active.

What is called EC50 is the concentration that produces a half-maximal response. For `C=CCc1ccc(O)c(-c2ccc(O)c(CC=C)c2)c1` [HONOKIOL], the EC50 in assay [4] turned out to be 11.8 µM. The result in [5], in [7], in [8], in [9], in assay [11] and in assay [12] was inactive. The result in assay [6], in assay [1], in assay [10] and in assay [3] was Active. Besides, the Activity result in assay [2] is “Dose-dependent effect”.

(Values after ChEMBL document CHEMBL1212931, “Identification of a naturally occurring rexinoid, honokiol, that activates the retinoid X receptor” (J Nat Prod, 2010).)
